Measured values: patent US10781181B2, “N-((het) arylmethyl)-heteroaryl-carboxamides compounds as plasma kallikrein inhibitors” (Kalvista Pharmaceuticals Limited, priority 2014, dated 2020)
Where two headings read alike, the source gives them in different places.

Key:
Type in all cases: biochemical
[1] = target: Human plasma kallikrein (Homo sapiens (Human), UniProt P03952); assay: Determination of the IC50 for plasma kallikrein; settings: read-out: IC50 (human PKal)
Protocol: Determination of the IC50 for Plasma Kallikrein
(§1) Human plasma kallikrein (Protogen) was incubated at 25° C. with the fluorogenic substrate H-DPro-Phe-Arg-AFC and various concentrations of the test compound. Residual enzyme activity (initial rate of reaction) was determined by measuring the change in […] at 410 nm and the IC50 value for the test compound was determined.

[2] = target: Human KLK1 (Homo sapiens (Human), UniProt P06870); assay: Determination of the IC50 for KLK1; settings: human KLK1, 25° C., substrate H-DVal-Leu-Arg-AFC
Sequence of Human KLK1 (P06870 25-262): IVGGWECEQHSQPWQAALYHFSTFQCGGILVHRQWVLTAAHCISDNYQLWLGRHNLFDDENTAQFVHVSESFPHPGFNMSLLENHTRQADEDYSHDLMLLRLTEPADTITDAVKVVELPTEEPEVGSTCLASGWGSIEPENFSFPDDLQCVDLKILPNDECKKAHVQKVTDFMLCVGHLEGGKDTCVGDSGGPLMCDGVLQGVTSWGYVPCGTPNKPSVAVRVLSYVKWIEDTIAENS
Protocol: Determination of the IC50 for KLK1
as §1, with “KLK1 (Callbiochem)” for “plasma kallikrein (Protogen)”, “H-DVal-Leu-Arg-AFC” for “H-DPro-Phe-Arg-AFC”

[3] = target: Human FXIa (Homo sapiens (Human), UniProt P03951); assay: Determination of the % inhibition for FXIa; settings: read-out: % Inhibition @ 40 μM (human FXIa)
Sequence of Human FXIa (P03951 388-625 limits assumed): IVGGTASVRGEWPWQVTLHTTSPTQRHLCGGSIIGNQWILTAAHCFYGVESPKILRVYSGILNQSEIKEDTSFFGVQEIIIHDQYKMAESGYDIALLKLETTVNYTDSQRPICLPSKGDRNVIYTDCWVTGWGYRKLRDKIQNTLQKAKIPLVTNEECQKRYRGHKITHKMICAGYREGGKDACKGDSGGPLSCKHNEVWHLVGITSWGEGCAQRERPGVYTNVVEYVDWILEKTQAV
Sequence of Human FXIa (P03951 19-387 partner limits assumed): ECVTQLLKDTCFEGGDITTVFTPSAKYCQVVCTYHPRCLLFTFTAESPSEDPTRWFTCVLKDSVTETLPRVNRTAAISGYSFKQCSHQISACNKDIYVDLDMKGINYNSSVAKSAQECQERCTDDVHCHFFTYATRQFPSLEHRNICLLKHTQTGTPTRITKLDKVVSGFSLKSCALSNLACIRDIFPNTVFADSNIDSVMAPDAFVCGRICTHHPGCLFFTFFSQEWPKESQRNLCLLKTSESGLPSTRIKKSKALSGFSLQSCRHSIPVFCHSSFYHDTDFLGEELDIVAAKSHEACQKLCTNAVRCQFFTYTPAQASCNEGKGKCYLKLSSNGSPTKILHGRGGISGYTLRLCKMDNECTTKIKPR
Protocol: Determination of the % Inhibition for FXIa
Human FXIa (Enzyme Research Laboratories) was incubated at 25° C. with the fluorogenic substrate Z-Gly-Pro-Arg-AFC and 40 μM of the test compound. Residual enzyme activity (initial rate of reaction) was determined by measuring the change in […].

[4] = 40 μM of the test compound, human FXIa, 25° C.

Sequence of Human plasma kallikrein (P03952 391-638): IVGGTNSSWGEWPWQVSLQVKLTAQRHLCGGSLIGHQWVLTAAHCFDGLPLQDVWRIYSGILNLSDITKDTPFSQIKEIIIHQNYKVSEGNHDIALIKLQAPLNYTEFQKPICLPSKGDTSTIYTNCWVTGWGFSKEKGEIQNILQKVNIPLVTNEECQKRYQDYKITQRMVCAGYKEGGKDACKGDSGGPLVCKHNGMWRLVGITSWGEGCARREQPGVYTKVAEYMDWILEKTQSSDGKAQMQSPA
Sequence of Human plasma kallikrein (P03952 20-390 partner): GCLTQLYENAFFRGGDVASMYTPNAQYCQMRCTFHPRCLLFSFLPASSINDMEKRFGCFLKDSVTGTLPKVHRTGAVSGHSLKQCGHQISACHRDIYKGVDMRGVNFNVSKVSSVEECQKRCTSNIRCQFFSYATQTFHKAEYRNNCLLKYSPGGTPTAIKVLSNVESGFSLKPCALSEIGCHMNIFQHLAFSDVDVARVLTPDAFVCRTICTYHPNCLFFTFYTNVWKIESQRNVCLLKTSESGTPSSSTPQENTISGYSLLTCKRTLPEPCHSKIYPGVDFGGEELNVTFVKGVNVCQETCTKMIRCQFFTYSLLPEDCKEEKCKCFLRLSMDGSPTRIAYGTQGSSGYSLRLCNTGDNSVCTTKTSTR

| Structure (SMILES) | IC50 [1] [µM] | IC50 [2] [µM] | inhibition at 40 µM [3] [%] | inhibition at 40 µM [3, 4] [%] |
| --- | --- | --- | --- | --- |
| Nc1nn(Cc2ccc(Br)cc2)cc1C(=O)NCCOc1cccc(Cl)c1 [Example 55, 3-amino-1-[(4-bromophenyl)methyl]-N-[2-(3-chlorophenoxy)ethyl]pyrazole-4-carboxamide] | 6.41 | > 40 | 80 |  |
| O=C(NCCOc1cccc(Cl)c1)c1cnn(Cc2ccc(Cn3ccccc3=O)cc2)c1 [Example 36, N-[2-(3-chlorophenoxy)ethyl]-1-({4-[(2-oxopyridin-1-yl)methyl]phenyl}methyl)pyrazole-4-carboxamide] | 0.0061 | > 40 |  | 0 |
| Nc1nn(Cc2ccc(CN3CCOCC3=O)cc2)cc1C(=O)NCCOc1cccc(Cl)c1 [Example 76, 3-amino-N-[2-(3-chlorophenoxy)ethyl]-1-({4-[(3-oxomorpholin-4-yl)methyl]phenyl}methyl)pyrazole-4-carboxamide] | 0.227 | > 40 |  | 0 |
| COCc1nn(Cc2ccc(Cn3ccccc3=O)cc2)cc1C(=O)NCCOc1ccccc1Cl [Example 6, N-[2-(2-chlorophenoxy)ethyl]-3-(methoxymethyl)-1-({4-[(2-oxopyridin-1-yl)methyl]phenyl}methyl)pyrazole-4-carboxamide] | 1.89 | > 10 |  | 0 |
| CCOC(=O)c1cccc(Cn2cc(C(=O)NCCOc3cccc(Cl)c3)c(N)n2)c1 [Example 62, ethyl 3-[(3-amino-4-{[2-(3-chlorophenoxy)ethyl]carbamoyl}pyrazol-1-yl)methyl]benzoate] | 7.15 | > 40 |  | 4 |
| C[C@@H](COc1cccc(Cl)c1)NC(=O)c1cn(Cc2ccc(Cn3ccccc3=O)cc2)nc1N [Example 114, 3-amino-N-[(2S)-1-(3-chlorophenoxy)propan-2-yl]-1-({4-[(2-oxopyridin-1-yl)methyl]phenyl}methyl)pyrazole-4-carboxamide] | 0.14 | > 40 |  | 0 |
| Nc1nn(Cc2cccc(Br)c2)cc1C(=O)NCCOc1cccc(Cl)c1 [Example 56, 3-amino-1-[(3-bromophenyl)methyl]-N-[2-(3-chlorophenoxy)ethyl]pyrazole-4-carboxamide] | 8.49 | > 40 | 0 |  |
| COCc1nn(Cc2ccc(Cn3cc(C)cn3)cc2)cc1C(=O)NCCOc1cccc(Cl)c1 [Example 27, N-[2-(3-chlorophenoxy)ethyl]-3-(methoxymethyl)-1-({4-[(4-methylpyrazol-1-yl)methyl]phenyl}methyl)pyrazole-4-carboxamide] | 0.231 | > 10 |  | 0 |
| Nc1nn(Cc2ccc(N3CCCC3)nc2)cc1C(=O)NCCOc1cccc(Cl)c1 [Example 49, 3-amino-N-[2-(3-chlorophenoxy)ethyl]-1-{[6-(pyrrolidin-1-yl)pyridin-3-yl]methyl}pyrazole-4-carboxamide] | 0.847 | > 40 |  | 0 |
| COC(=O)c1ccc(Cn2cc(C(=O)NCCOc3cccc(Cl)c3)c(N)n2)cc1 [Example 58, methyl 4-[(3-amino-4-{[2-(3-chlorophenoxy)ethyl]carbamoyl}pyrazol-1-yl)methyl]benzoate] | 5.42 | > 40 |  | 1 |
| Nc1nn(Cc2ccc(Cn3ccccc3=O)cc2)cc1C(=O)N[C@@H]1CCN(Cc2cccc(Cl)c2)C1 [Example 108, 3-amino-N-[(3R)-1-[(3-chlorophenyl)methyl]pyrrolidin-3-yl]-1-({4-[(2-oxopyridin-1-yl)methyl]phenyl}methyl)pyrazole-4-carboxamide] | 0.299 | > 40 |  | 0 |
| Nc1nn(Cc2ccnc(-n3cccn3)c2)cc1C(=O)NCCOc1cccc(Cl)c1 [Example 66, 3-amino-N-[2-(3-chlorophenoxy)ethyl]-1-{[2-(pyrazol-1-yl)pyridin-4-yl]methyl}pyrazole-4-carboxamide] | 4.92 | > 40 |  | 0 |
| Nc1nn(Cc2ccc(Cn3ccccc3=O)cc2)cc1C(=O)NCC(=O)Nc1cccc(Cl)c1 [Example 2] | 0.0602 | > 10 |  | 0 |
| CN(CCNC(=O)c1cn(Cc2ccc(Cn3ccccc3=O)cc2)nc1N)c1cccc(Cl)c1 [Example 41, 3-amino-N-{2-[(3-chlorophenyl)(methyl)amino]ethyl}-1-({4-[(2-oxopyridin-1-yl)methyl]phenyl}methyl)pyrazole-4-carboxamide] | 0.264 | > 40 |  | 0 |
| Nc1nn(Cc2ccc(Cn3ccccc3=O)cc2)cc1C(=O)N[C@H]1CCN(c2cc(Cl)ccn2)C1 [Example 112, 3-amino-N-[(3S)-1-(4-chloropyridin-2-yl)pyrrolidin-3-yl]-1-({4-[(2-oxopyridin-1-yl)methyl]phenyl}methyl)pyrazole-4-carboxamide] | 7.46 | > 40 |  | 29 |
| Nc1nn(Cc2ccc(Cn3ccccc3=O)cc2)cc1C(=O)NCCNc1cc(Cl)ccn1 [Example 47, 3-amino-N-{2-[(4-chloropyridin-2-yl)amino]ethyl}-1-({4-[(2-oxopyridin-1-yl)methyl]phenyl}methyl)pyrazole-4-carboxamide] | 0.0301 | > 40 |  | 32 |
| Nc1c(C(=O)NCCOc2cccc(Cl)c2)cnn1Cc1ccc(Cn2ccccc2=O)cc1 [Example 17, 5-amino-N-[2-(3-chlorophenoxy)ethyl]-1-({4-[(2-oxopyridin-1-yl)methyl]phenyl}methyl)pyrazole-4-carboxamide] | 0.096 | > 10 |  | 2 |
| Nc1nn(Cc2ccc(Cn3ccccc3=O)cc2)cc1C(=O)NCCCc1cccc(Cl)c1 [Example 42, 3-amino-N-[3-(3-chlorophenyl)propyl]-1-({4-[(2-oxopyridin-1-yl)methyl]phenyl}methyl)pyrazole-4-carboxamide] | 0.0032 | > 40 |  | 0 |
| CN(C(=O)CNC(=O)c1cn(Cc2ccc(Cn3ccccc3=O)cc2)nc1N)c1cccc(Cl)c1 [Example 40, 2-{[3-amino-1-({4-[(2-oxopyridin-1-yl)methyl]phenyl}methyl)pyrazol-4-yl]formamido}-N-(3-chlorophenyl)-N-methylacetamide] | 0.0126 | > 40 |  | 0 |
| Cc1ccc2cc(Cn3cc(C(=O)NCCOc4cccc(Cl)c4)c(N)n3)ccc2n1 [Example 54, 3-amino-N-[2-(3-chlorophenoxy)ethyl]-1-[(2-methylquinolin-6-yl)methyl]pyrazole-4-carboxamide] | 0.245 | > 40 |  | 67 |
| CC(C)C(=O)N(C)Cc1ccc(Cn2cc(C(=O)NCCOc3cccc(Cl)c3)c(N)n2)cc1 [Example 84, 3-amino-N-[2-(3-chlorophenoxy)ethyl]-1-({4-[(N,2-dimethylpropanamido)methyl]phenyl}methyl)pyrazole-4-carboxamide] | 0.731 | > 40 |  | 3 |
| Cc1ccc(Cl)cc1OCCNC(=O)c1cn(Cc2ccc(Cn3ccccc3=O)cc2)nc1N [Example 14, 3-amino-N-[2-(5-chloro-2-methylphenoxy)ethyl]-1-({4-[(2-oxopyridin-1-yl)methyl]phenyl}methyl)pyrazole-4-carboxamide] | 0.161 | > 40 |  | 0 |
| COCc1nn(Cc2ccc(Cn3ccccc3=O)cc2)cc1C(=O)NCCOc1cc(F)cc(Cl)c1 [Example 10, N-[2-(3-chloro-5-fluorophenoxy)ethyl]-3-(methoxymethyl)-1-({4-[(2-oxopyridin-1-yl)methyl]phenyl}methyl)pyrazole-4-carboxamide] | 0.134 | > 10 |  | 0 |
| C[C@H](NC(=O)c1cn(Cc2ccc(Cn3ccccc3=O)cc2)nc1N)C(=O)N(C)c1cccc(Cl)c1 [Example 116, (2S)-2-{[3-amino-1-({4-[(2-oxopyridin-1-yl)methyl]phenyl}methyl)pyrazol-4-yl]formamido}-N-(3-chlorophenyl)-N-methylpropanamide] | 0.39 | > 40 |  | 0 |
| COCc1nn(Cc2ccc(Cn3ccccc3=O)cc2)cc1C(=O)NCCOc1cccc(Cl)c1 [Example 8, N-[2-(3-chlorophenoxy)ethyl]-3-(methoxymethyl)-1-({4-[(2-oxopyridin-1-yl)methyl]phenyl}methyl)pyrazole-4-carboxamide] | 0.0166 | > 10 |  | 0 |
| O=C(NCCOc1cccc(Cl)c1)c1cn(Cc2ccc(Cn3ccccc3=O)cc2)nc1C1CC1 [Example 5, N-[2-(3-chlorophenoxy)ethyl]-3-cyclopropyl-1-({4-[(2-oxopyridin-1-yl)methyl]phenyl}methyl)pyrazole-4-carboxamide] | 0.0684 | > 10 |  | 0 |
| Cc1cnn(-c2ccc(Cn3cc(C(=O)NCCOc4cccc(Cl)c4)c(N)n3)cn2)c1 [Example 89, 3-amino-N-[2-(3-chlorophenoxy)ethyl]-1-{[6-(4-methylpyrazol-1-yl)pyridin-3-yl]methyl}pyrazole-4-carboxamide] | 3.35 | > 40 |  | 33 |
